Source: PubChem BioAssay AID248 (DTP/NCI, 2004)
Toxic doses and inconclusive results are not listed. Cut-off read from the data, not from the text of the source: active = T/C of 150% or more; inactive = T/C below 125%.

Tested on: L1210 leukemia ip in BDF1 mice, survival T/C
Experiment: NCI In Vivo Anticancer Drug Screen. Data for tumor model L1210 Leukemia (intraperitoneal) in B6D2F1 (BDF1) mice
Settings: endpoint: mean survival time, higher = longer survival
In short: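 Value reflects the ratio of survival in compound-treated mice to survival in vehicle-treated controls, with both groups carrying the same transplanted tumor.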

[1] = dose: 100.0 mg/kg/injection, schedule: Q01DX009 (ip), vehicle: saline with Tween-80
[2] = dose: 200.0 mg/kg/injection, schedule: Q01DX009 (ip), vehicle: saline with Tween-80
[3] = dose: 400.0 mg/kg/injection, schedule: Q01DX009 (ip), vehicle: saline with Tween-80
[4] = dose: 100.0 mg/kg/injection, schedule: Q01DX001 (ip), vehicle: saline
[5] = dose: 200.0 mg/kg/injection, schedule: Q01DX001 (ip), vehicle: saline
[6] = dose: 400.0 mg/kg/injection, schedule: Q01DX001 (ip), vehicle: saline
[7] = dose: 100.0 mg/kg/injection, schedule: Q04DX003 (ip), vehicle: saline
[8] = dose: 200.0 mg/kg/injection, schedule: Q04DX003 (ip), vehicle: saline
[9] = dose: 400.0 mg/kg/injection, schedule: Q04DX003 (ip), vehicle: saline
[10] = dose: 100.0 mg/kg/injection, schedule: Q04DX003 (ip), vehicle: saline with Tween-80
[11] = dose: 200.0 mg/kg/injection, schedule: Q04DX003 (ip), vehicle: saline with Tween-80
[12] = dose: 50.0 mg/kg/injection, schedule: Q04DX002 (ip), vehicle: Klucel (hydroxypropylcellulose) (HPC)
[13] = dose: 100.0 mg/kg/injection, schedule: Q04DX002 (ip), vehicle: Klucel (hydroxypropylcellulose) (HPC)
[14] = dose: 200.0 mg/kg/injection, schedule: Q04DX002 (ip), vehicle: Klucel (hydroxypropylcellulose) (HPC)
[15] = dose: 400.0 mg/kg/injection, schedule: Q04DX003 (ip), vehicle: saline with Tween-80

Measured: T/C

Cc1ccc(CSc2ssc(=S)c2-c2ccccc2)cc1
inactive: [1] 101 % of control | dose: 100.0 mg/kg/injection, schedule: Q04DX003 (ip), vehicle: acetone 99 % of control | [2] 97 % of control | dose: 200.0 mg/kg/injection, schedule: Q04DX003 (ip), vehicle: acetone 98 % of control | [3] 95 % of control | dose: 400.0 mg/kg/injection, schedule: Q04DX003 (ip), vehicle: acetone 91 % of control

O=S(=O)(O)C(O)c1ccccc1O (stereo unspecified)
inactive: [4] 100 % of control | [5] 103 % of control | [6] 102 % of control

Cc1cc(Cl)ccc1OCCCC(=O)O
inactive: dose: 50.0 mg/kg/injection, schedule: Q01DX001 (ip), vehicle: saline 102 % of control | [4] 98 % of control | [5] 98 % of control | [6] 104 % of control

NC(N)=Nc1ccc(S(=O)(=O)O)cc1
inactive: [7] 103 % of control | [8] 105 % of control | [9] 103 % of control

O=C(OCCBr)c1ccc(Cl)cc1
inactive: [7] 101 % of control | [8] 97 % of control | [9] 103 % of control

C=CCOc1ccc(Cl)cc1
inactive: [10] 90 % of control | [11] 94 % of control

NC(=S)N/N=C/c1c(Cl)n(C(=O)c2ccccc2)c2ccccc12
inactive: [12] 98 % of control | [13] 87 % of control | [14] 87 % of control

CC(NC(=O)OCc1ccccc1)C(=O)NC1C(CO)OC(n2cnc3c(N)ncnc32)C1O (stereo unspecified)
inactive: [4] 94 % of control | [5] 103 % of control | [6] 100 % of control

CC(=O)Nc1cccc(OC(=O)Nc2ccc([N+](=O)[O-])cc2Cl)c1
inactive: dose: 100.0 mg/kg/injection, schedule: Q01DX009 (ip), vehicle: saline 98 % of control | [7] 97 % of control | dose: 200.0 mg/kg/injection, schedule: Q01DX009 (ip), vehicle: saline 98 % of control | [8] 107 % of control | dose: 400.0 mg/kg/injection, schedule: Q01DX009 (ip), vehicle: saline 102 % of control | [9] 105 % of control

[Cl][Hg][Cl].c1cnccn1
inactive: dose: 1.0 mg/kg/injection, schedule: Q01DX009 (ip), vehicle: saline with Tween-80 105 % of control | dose: 2.0 mg/kg/injection, schedule: Q01DX009 (ip), vehicle: saline with Tween-80 93 % of control | dose: 4.0 mg/kg/injection, schedule: Q01DX009 (ip), vehicle: saline with Tween-80 105 % of control | dose: 8.0 mg/kg/injection, schedule: Q04DX003 (ip), vehicle: saline with Tween-80 88 % of control

CN(C)N=Nc1ccc(C(=O)N/N=C/c2ccc(Cl)cc2)cc1
inactive: dose: 50.0 mg/kg/injection, schedule: Q04DX003 (ip), vehicle: Klucel (hydroxypropylcellulose) (HPC) 99 % of control | dose: 100.0 mg/kg/injection, schedule: Q04DX003 (ip), vehicle: Klucel (hydroxypropylcellulose) (HPC) 97 % of control | dose: 200.0 mg/kg/injection, schedule: Q04DX003 (ip), vehicle: Klucel (hydroxypropylcellulose) (HPC) 103 % of control

COc1ccc(Cc2cc3cc(OC)c(OC)cc3cn2)cc1OC
inactive: [1] 103 % of control | [10] 93 % of control | [2] 105 % of control | [11] 104 % of control | [3] 121 % of control | [15] 90 % of control

O=C(Nc1ncc(S(=O)(=O)c2ccc([N+](=O)[O-])cc2)s1)C(F)(F)F
inactive: [1] 94 % of control | [2] 99 % of control

COc1ccc(OC)c(/C=N/NC(=O)c2ccccc2Cl)c1
inactive: dose: 50.0 mg/kg/injection, schedule: Q01DX009 (ip), vehicle: saline with Tween-80 91 % of control | [1] 97 % of control | [2] 94 % of control

CCCCCC[n+]1ccc(C#N)cc1
inactive: dose: 75.0 mg/kg/injection, schedule: Q01DX001 (ip), vehicle: saline 101 % of control

COc1ccc(CCNC(=O)C2(C(C)C)OC3(O)C4CCCN4C(=O)C(C(C)C)N3C2=O)cc1OC (stereo unspecified)
inactive: dose: 12.5 mg/kg/injection, schedule: Q04DX003 (ip), vehicle: alcohol 98 % of control | dose: 25.0 mg/kg/injection, schedule: Q04DX003 (ip), vehicle: alcohol 97 % of control | dose: 25.0 mg/kg/injection, schedule: Q04DX003 (ip), vehicle: saline with Tween-80 98 % of control | dose: 50.0 mg/kg/injection, schedule: Q04DX003 (ip), vehicle: alcohol 104 % of control | dose: 50.0 mg/kg/injection, schedule: Q04DX003 (ip), vehicle: saline with Tween-80 114 % of control | dose: 100.0 mg/kg/injection, schedule: Q04DX003 (ip), vehicle: alcohol 101 % of control | [10] 98 % of control | [11] 111 % of control

c1ccc(-c2cnc(-c3ccccc3)[nH]2)cc1
inactive: [10] 97 % of control | [11] 100 % of control | [15] 100 % of control

Nc1nc(-c2ccccc2)c(CCCOc2ccc(NC(=O)CBr)cc2)c(=O)[nH]1
inactive: dose: 50.0 mg/kg/injection, schedule: Q01DX001 (ip), vehicle: carboxymethylcellulose (CMC) 91 % of control | dose: 100.0 mg/kg/injection, schedule: Q01DX001 (ip), vehicle: carboxymethylcellulose (CMC) 96 % of control | dose: 200.0 mg/kg/injection, schedule: Q01DX001 (ip), vehicle: carboxymethylcellulose (CMC) 86 % of control | dose: 400.0 mg/kg/injection, schedule: Q01DX001 (ip), vehicle: carboxymethylcellulose (CMC) 86 % of control

CCCCCCCCCCCC(=O)[O][Sn]([CH2]c1ccccc1)([CH2]c1ccccc1)[CH2]c1ccccc1
inactive: dose: 0.5 mg/kg/injection, schedule: Q04DX003 (ip), vehicle: other 99 % of control | dose: 0.75 mg/kg/injection, schedule: Q01DX009 (ip), vehicle: other 97 % of control | dose: 1.0 mg/kg/injection, schedule: Q04DX003 (ip), vehicle: other 99 % of control | dose: 1.5 mg/kg/injection, schedule: Q01DX009 (ip), vehicle: other 94 % of control | dose: 3.0 mg/kg/injection, schedule: Q01DX009 (ip), vehicle: other 97 % of control | dose: 3.0 mg/kg/injection, schedule: Q04DX003 (ip), vehicle: other 100 % of control

NS(=O)(=O)c1c([N+](=O)[O-])ncn1C1OC(COC(=O)c2ccccc2)C(OC(=O)c2ccccc2)C1OC(=O)c1ccccc1 (stereo unspecified)
inactive: dose: 100.0 mg/kg/injection, schedule: Q01DX005 (ip), vehicle: saline 93 % of control | dose: 200.0 mg/kg/injection, schedule: Q01DX005 (ip), vehicle: saline 95 % of control

CCCNC(=O)c1cc(NC(=O)Nc2ccc(C3=NCCN3)cc2)cc(NC(=O)Nc2ccc(C3=NCCN3)cc2)c1
inactive: dose: 2.5 mg/kg/injection, schedule: Q01DX Z (ip), vehicle: carboxymethylcellulose (CMC) 104 % of control | dose: 5.0 mg/kg/injection, schedule: Q01DX Z (ip), vehicle: carboxymethylcellulose (CMC) 112 % of control | dose: 20.0 mg/kg/injection, schedule: Q01DX Z (ip), vehicle: carboxymethylcellulose (CMC) 124 % of control | dose: 42.0 mg/kg/injection, schedule: Q01DX Z (ip), vehicle: carboxymethylcellulose (CMC) 115 % of control

CC(=O)N1CC(n2nnc3c(N)ncnc32)CC1CO (stereo unspecified)
inactive: dose: 12.5 mg/kg/injection, schedule: Q04DX002 (ip), vehicle: saline with Tween-80 98 % of control | dose: 25.0 mg/kg/injection, schedule: Q04DX002 (ip), vehicle: saline with Tween-80 102 % of control | dose: 50.0 mg/kg/injection, schedule: Q04DX002 (ip), vehicle: saline with Tween-80 94 % of control

CCN1CCN(CC)C1=S
inactive: [12] 114 % of control | [13] 90 % of control | [14] 109 % of control

Cc1ccc(S(=O)(=O)NC(=O)NCCC(C)C)cc1
inactive: [10] 102 % of control | [11] 100 % of control | [15] 96 % of control

Oc1c(Br)cc(Br)cc1/C=C/NC(=S)NC1CC2CC1C1C=CCC21 (stereo unspecified)
inactive: dose: 100.0 mg/kg/injection, schedule: Q01DX009 (ip), vehicle: Klucel (hydroxypropylcellulose) (HPC) 105 % of control | dose: 200.0 mg/kg/injection, schedule: Q01DX009 (ip), vehicle: Klucel (hydroxypropylcellulose) (HPC) 94 % of control | dose: 400.0 mg/kg/injection, schedule: Q01DX009 (ip), vehicle: Klucel (hydroxypropylcellulose) (HPC) 97 % of control
